ChEMBL document CHEMBL1201862, “PubChem BioAssay data set” (2004)
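Values below derive from 48-hour exposures of cells grown in 96-well plates, with endpoints linearly interpolated between the two concentrations bracketing the appropriate inhibition level. GI50 marks 50% less growth.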 Activity calls are given as the source filed them. No stated cut-off is given here; in the data, active = GI50 up to about 1.1 µM and inactive = higher.

Key:
Assay in all cases: growth of human tumour cells (NCI), 48 h
HCT-15 = tested on: HCT-15
U-251 = tested on: U-251
A498 = tested on: A498
Malme-3M = tested on: Malme-3M
UACC-62 = tested on: UACC-62
NCI-H23 = tested on: NCI-H23
DLD-1 = tested on: DLD-1
IGROV-1 = tested on: IGROV-1
NCI-H460 = tested on: NCI-H460
HOP-62 = tested on: HOP-62
COLO 205 = tested on: COLO 205
HCC 2998 = tested on: HCC 2998
UO-31 = tested on: UO-31
OVCAR-5 = tested on: OVCAR-5
SF-295 = tested on: SF-295
RXF 393 = tested on: RXF 393
MOLT-4 = tested on: MOLT-4
HL-60 = tested on: HL-60
CAKI-1 = tested on: CAKI-1
SK-MEL-2 = tested on: SK-MEL-2
RPMI-8226 = tested on: RPMI-8226
DMS-114 = tested on: DMS-114
OVCAR-8 = tested on: OVCAR-8
OVCAR-4 = tested on: OVCAR-4
DMS-273 = tested on: DMS-273
KM-20L2 = tested on: KM-20L2
SW-620 = tested on: SW-620
SF-539 = tested on: SF-539
K562 = tested on: K562
SK-OV-3 = tested on: SK-OV-3
M14 = tested on: M14
SNB-19 = tested on: SNB-19
LXFL 529 = tested on: LXFL 529
LOX IMVI = tested on: LOX IMVI
HCT-116 = tested on: HCT-116
TK-10 = tested on: TK-10
HOP-18 = tested on: HOP-18
KM12 = tested on: KM12
A549 = tested on: A549
SNB-75 = tested on: SNB-75
SK-MEL-5 = tested on: SK-MEL-5
UACC-257 = tested on: UACC-257
CCRF-CEM = tested on: CCRF-CEM
M19-MEL = tested on: M19-MEL
EKVX = tested on: EKVX
RXF 631 = tested on: RXF 631
HT-29 = tested on: HT-29
NCI-H226 = tested on: NCI-H226
SN12C = tested on: SN12C
ACHN = tested on: ACHN
786-0 = tested on: 786-0
OVCAR-3 = tested on: OVCAR-3
SK-MEL-28 = tested on: SK-MEL-28
SF-268 = tested on: SF-268
NCI-H522 = tested on: NCI-H522

With `COc1ccc2nc3cc(Cl)ccc3c(NCCC[N+](C)(C)CCCCCCCCCCCCCCCC[N+](C)(C)CCCNc3c4ccc(Cl)cc4nc4ccc(OC)cc34)c2c1` the GI50 (HCT-15) was 5850 nM, the GI50 (U-251) was 2000 nM (inactive) and the GI50 (A498) was 6170 nM (inactive). For the same compound, the GI50 (Malme-3M) was 2240 nM (inactive), the GI50 (UACC-62) was 2690 nM (inactive) and the GI50 (NCI-H23) was 2000 nM (inactive). The GI50 (DLD-1) was 3110 nM (inactive), the GI50 (IGROV-1) was 2700 nM (inactive) and the GI50 (NCI-H460) was 1680 nM (inactive). The GI50 (HOP-62) was 2880 nM (inactive), the GI50 (COLO 205) was 1830 nM (inactive) and the GI50 (HCC 2998) was 2840 nM (inactive). For the same compound, the GI50 (UO-31) was > 10000 nM (inactive), the GI50 (OVCAR-5) was 2920 nM (inactive) and the GI50 (SF-295) was 6030 nM (inactive). For the same compound, the GI50 (RXF 393) was 2840 nM (inactive), the GI50 (MOLT-4) was 1430 nM (inactive) and the GI50 (HL-60) was 1690 nM (inactive). For the same compound, the GI50 (CAKI-1) was 10600 nM (inactive), the GI50 (SK-MEL-2) was 1790 nM (inactive) and the GI50 (RPMI-8226) was 1470 nM (inactive). For the same compound, the GI50 (DMS-114) was 1890 nM (inactive), the GI50 (OVCAR-8) was 3150 nM (inactive) and the GI50 (OVCAR-4) was 2440 nM (inactive). The GI50 (DMS-273) was 1770 nM (inactive), the GI50 (KM-20L2) was 3300 nM (inactive) and the GI50 (SW-620) was 1960 nM (inactive). For the same compound, the GI50 (SF-539) was 2250 nM (inactive), the GI50 (K562) was 1850 nM (inactive) and the GI50 (SK-OV-3) was 4330 nM (inactive). For the same compound, the GI50 (M14) was 4700 nM (inactive), the GI50 (SNB-19) was 2690 nM (inactive) and the GI50 (LXFL 529) was 1790 nM (inactive). The GI50 (LOX IMVI) was 1960 nM (inactive), the GI50 (HCT-116) was 1750 nM (inactive) and the GI50 (TK-10) was 4220 nM (inactive). The GI50 (HOP-18) was 2420 nM (inactive), the GI50 (KM12) was 1640 nM (inactive) and the GI50 (A549) was 3120 nM (inactive). The GI50 (SNB-75) was 2830 nM (inactive), the GI50 (SK-MEL-5) was 2000 nM (inactive) and the GI50 (UACC-257) was 2430 nM (inactive). For the same compound, the GI50 (CCRF-CEM) was 1660 nM (inactive), the GI50 (M19-MEL) was 1970 nM (inactive) and the GI50 (EKVX) was 3210 nM (inactive). The GI50 (RXF 631) was 7140 nM (inactive), the GI50 (HT-29) was 1610 nM (inactive) and the GI50 (NCI-H226) was 3940 nM (inactive). The GI50 (SN12C) was 3220 nM (inactive), the GI50 (ACHN) was 6220 nM (inactive) and the GI50 (786-0) was 3630 nM (inactive). For the same compound, the GI50 (OVCAR-3) was 4810 nM (inactive), the GI50 (SK-MEL-28) was 2080 nM (inactive) and the GI50 (SF-268) was 2110 nM (inactive). For the same compound, the GI50 (NCI-H522) was 2810 nM (inactive).
